Experimental data as given in article doi:10.1101/2024.05.17.594634, “Protein Structure Inspired Drug Discovery” (bioRxiv, 2024).

Experiments:
Format in all cases: cell-based, human
[1] = system: HT29 colon cancer cells; experiment: Eight-day colony formation assay, HT29
Experimental: (§1) We sought to identify compounds that would inhibit the growth of cancer cells, but that also did so selectively. Inhibition of cancer cell growth is a highly sought after attribute of anticancer agents. This was assessed by measuring the ability of a compound to inhibit cell growth in eight-day colony formation assays, examining concentrations ranging from 0.017 to 40 μM. Breast, colon, lung and prostate cancer are four of the most common causes of cancer in the United States, are major causes of cancer cell death, and were examined.[64] Two cell lines for each cancer type were assessed: A549 (adenocarcinoma) and H226 (squamous carcinoma) for lung, MCF-7 (estrogen receptor [ER] positive) and MDA-MB-231 (ER negative) for breast, LNCaP (androgen receptor [AR] positive) and PC3-M (AR negative) for prostate, and HCT116 (wild type p53, mutated KRAS) and HT29 (p53 mutant) for colon.[65]
(§2) In considering effect on cancer cells, for each compound and each cell line tested we calculated the efficacy ratio, i.e., efficacy ratio = (percent of remaining cancer cell colonies)/(percent of remaining bone marrow colonies), at 8 days after treatment with 40 μM compound (S4 Fig). We considered those with an efficacy ratio below 0.5 as active and at least partially selective. The stringency of this is highlighted by considering the effect of 5FU on colon cancer, where it is frequently used clinically in proven curative settings, as well as proven life prolonging settings.[70, 71] […] Even at 5.7 μM, where 5FU is toxic to bone marrow, with hematopoietic colony formation at 38% of control, the efficacy ratio for HT29 cells has only dropped to 0.52. […] It can be seen that compounds segregate to protein sites. Specifically, of 10 compounds meeting this activity criteria (i.e., efficacy ratio <0.5), 3 were directed at the Dxr2 site, 3 at FolC2, 2 at FolC1, 1 at Dxr1 and 1 at TYLT.
(§3) Eight-day colony formation assays of cancer cells were performed as described by us.[87] Briefly, 0.5–1.0 × 10^3 cells were seeded into a 12 well plate, after 24 hours compound added and eight days later colonies (of 3 or more cells) were scored after trypan blue staining. Conditions were in replicates of N = 2. All compounds were stored under desiccated conditions in a sealed container at minus 20°C upon arrival. One day prior to use, they were placed into DMSO, stored at […] as stock solutions, thawed just prior to use, and not reused.

[2] = system: melanoma cell lines; experiment: NCI-60 cell line screen, melanoma cell lines; conditions: 10 μM X 48 hours
Experimental: (§4) Above findings support the importance of Dxr2 and FolC2 sites, and of Dxr2-017 and FolC2-001 compounds, respectively. The predicted poses of Dxr2-017 bound to the Dxr2 site and FolC2-001 bound to the FolC2 site are shown (Fig 7). The NCI-60 cell line screen evaluates compound growth inhibition and cell toxicity in a highly standardized manner across 60 different cell lines. Dxr2-017 and FolC2-001 were evaluated in this assay (S5 Fig). NCI-60 screens evaluate compounds at 10 μM X 48 hours. […] Of high interest, in the NCI-60 screen Dxr2-017 had relatively high activity against melanoma cell lines, inducing cell death in 5 cell lines ranging from 25–65%, and inhibiting growth in 4 cell lines ranging from 76–96%. Its impact on cell death represents the most striking relative difference in response across cell lines.

[3] = system: MCF-7 breast cancer cells; experiment: Eight-day colony formation assay, MCF-7
Experimental: as §1, §2, §3

[4] = system: HT29, MDA-MB-231 and H226; experiment: NCI-60 cell line screen, other cell lines; conditions: 10 μM X 48 hours
Experimental: as §4

[5] = system: PC3-M prostate cancer cells; experiment: Eight-day colony formation assay, PC3-M
Experimental: as §1, §2, §3

[6] = system: MDA-MB-231 breast cancer cells; experiment: Eight-day colony formation assay, MDA-MB-231; conditions: for efficacy ratio (cancer cell colonies to bone marrow colonies at 8 days): MDAMB231
Experimental: as §1, §2, §3

c1ccc2sc(-c3ccc(CNc4ccc5nnnn5n4)o3)nc2c1 [Dxr2-017]
efficacy ratio (cancer cell colonies to bone marrow colonies at 8 days) ([1]; 5.7 μM): 0.03
efficacy ratio (cancer cell colonies to bone marrow colonies at 8 days) ([1]; 40 μM): 0.00
inhibition at 0.12 µM ([1]; Homo sapiens, HT-29, 0.12 μM, mean ± SD, read-out: inhibition of colony formation compared to control): 91.1 ± 4.8%
cell death ([2]; range over 5 melanoma cell lines): 25–65%
inhibition at 10 µM ([2]; Homo sapiens, range over 4 melanoma cell lines, read-out: growth inhibition): 76 to 96%
efficacy ratio (cancer cell colonies to bone marrow colonies at 8 days) ([3]; 5.7 μM): 0.39
efficacy ratio (cancer cell colonies to bone marrow colonies at 8 days) ([3]; 40 μM): 0.02
activity in NCI-60 screen [4]: activity against HT29, MDA-MB-231 and H226
efficacy ratio (cancer cell colonies to bone marrow colonies at 8 days) ([5]; 5.7 μM): 0.41
efficacy ratio (cancer cell colonies to bone marrow colonies at 8 days) ([5]; 40 μM): 0.00
efficacy ratio (cancer cell colonies to bone marrow colonies at 8 days) ([6]; 5.7 μM): 0.05
efficacy ratio (cancer cell colonies to bone marrow colonies at 8 days) ([6]; 40 μM): 0.00
inhibition at 0.12 µM ([6]; Homo sapiens, 0.12 μM, MDA-MB-231, mean ± SD, read-out: inhibition of colony formation compared to control): 81.7 ± 15.5%
